The nature of assay [1]: Immunosuppressive activity against LPS induced B-cells proliferation. The format is functional, cell-based. To be noted: B-cell.
A short description of assay [2]: Immunosuppressive activity against ConA induced T-cells proliferation. The class given is functional, cell-based. The following applies: T-cell.

Molecules are shown by their SMILES.

As a reminder, the IC50 is the concentration needed to halve the response being measured. Higher therefore signals weaker potency. As to `CC1=C[C@H](O)[C@@H]2[C@@]3(C)[C@H](O)CC(=O)C(C)(C)[C@@H]3CC[C@@]2(C)[C@]12Cc1c(c(C)c(C)oc1=O)O2`, the IC50 worked out at 13 µM in assay [1] and 12 µM in assay [2].
Take `CC1=C[C@H](O)[C@@H]2[C@@]3(C)C=CC(=O)C(C)(C)[C@@H]3CC[C@@]2(C)[C@]12Cc1c(c(C)c(C)oc1=O)O2`: the IC50 in assay [1] turned out to be 7.5 µM; in assay [2], 4.7 µM.
Take `CC1=C[C@H](O)[C@@H]2[C@@]3(C)CC[C@H](O)C(C)(C)[C@@H]3CC[C@@]2(C)[C@]12Cc1c(c(C)c(C)oc1=O)O2`: the IC50 in assay [1] is 4.6 µM; in assay [2] it was 4.1 µM.
In the case of `CC1=CC[C@@H]2[C@@]3(C)CCC(=O)C(C)(C)[C@@H]3CC[C@@]2(C)[C@]12Cc1c(c(C)c(C)oc1=O)O2`, the IC50 in assay [1] and in assay [2] was 17 µM throughout.
Take `CC1=C[C@H](O)[C@@H]2[C@@]3(C)CCC(=O)C(C)(C)[C@@H]3CC[C@@]2(C)[C@]12Cc1c(c(C)c(C)oc1=O)O2`: the IC50 in assay [1] came to 18 µM; in assay [2], 11 µM.
The like results for `CC1=C[C@H](O)[C@@H]2[C@@]3(C)[C@H](O)[C@@H](O)[C@H](O)C(C)(C)[C@@H]3CC[C@@]2(C)[C@]12Cc1c(c(C)c(C)oc1=O)O2` were, in that order, 6.3 µM and 7.3 µM.
As for `CC1=CC[C@@H]2[C@@]3(C)C=CC(=O)C(C)(C)[C@@H]3CC[C@@]2(C)[C@]12Cc1c(c(C)c(C)oc1=O)O2`, the IC50 in assay [1] came out at 6.7 µM; in assay [2], 4.8 µM.
